Assay results reported in patent publication US20240374573A1, “IMIDAZOLE CONTAINING COMPOUNDS, DERIVATIVES THEREFORE, AND USES THEREOF” (AglaeaPharma Inc., priority 2023, published 2024).

Columns and labels:
[1] = target: T1, α2AAR (α2A-adrenergic receptor) (Homo sapiens, UniProt P08913); assay: α2AAR FLIPR assay (agonist activity); type: cell-based; settings: FLIPR, α2AAR cell line hosted in HEK293 cells; read-out: α2A agonist activity (EC50)
T1 construct: expressed in transfected cells; host or cells: HEK293
T1 sequence (P08913 1-465): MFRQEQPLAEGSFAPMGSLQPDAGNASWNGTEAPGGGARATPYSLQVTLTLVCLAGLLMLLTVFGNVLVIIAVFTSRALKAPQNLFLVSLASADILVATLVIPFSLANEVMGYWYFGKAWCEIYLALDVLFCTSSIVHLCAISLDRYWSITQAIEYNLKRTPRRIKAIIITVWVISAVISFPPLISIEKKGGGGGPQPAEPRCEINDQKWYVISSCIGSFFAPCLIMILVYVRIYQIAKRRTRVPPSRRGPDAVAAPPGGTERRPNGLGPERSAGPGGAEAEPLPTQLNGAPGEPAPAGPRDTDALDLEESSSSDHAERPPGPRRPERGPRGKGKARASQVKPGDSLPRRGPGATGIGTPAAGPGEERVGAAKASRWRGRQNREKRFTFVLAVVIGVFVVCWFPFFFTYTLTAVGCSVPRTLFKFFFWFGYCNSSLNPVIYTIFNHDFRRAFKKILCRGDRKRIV
In short: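 HEK293 cells expressing α2AAR loaded with Fluo-4 Direct plus probenecid for 50 min at 37° C and 10 min at room temperature, then treated with serially diluted compounds.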

α2AAR = target: T2, α2AAR (Homo sapiens, UniProt P08913); assay: α2AAR binding assay ([3H]-RX 821002 radioligand); settings: [3H]-RX 821002 0.5 nM, HEK293 membranes; read-out: α2A affinity (Ki)
T2 construct: host or cells: HEK293 (membranes)
T2 sequence (P08913 1-465): T1 sequence (P08913 1-465)

Row | Compound | EC50 [1] | Ki (α2AAR)
1 | Cc1cccc(C(Cc2ccc(C(C)(C)C(=O)O)cc2)c2c[nH]cn2)c1C (stereo not shown) [compound 251] | 10 to 50 nM | 50 to 250 nM
2 | Cc1cccc(C(Cc2ccc3c(c2)OCCO3)c2c[nH]cn2)c1C (stereo not shown) [compound 196] | 50 to 250 nM | < 10 nM
3 | CC(=O)Nc1cccc(C(c2c[nH]cn2)c2cccc(C)c2C)c1F (stereo not shown) [compound 50] | 50 to 250 nM | 50 to 250 nM
4 | COP(=O)(CC1CCOCC1)Nc1cccc(C(c2c[nH]cn2)c2cccc(C)c2C)c1 (stereo not shown) [compound 167] | 10 to 50 nM | 10 to 50 nM
5 | Cc1cccc(C(c2cccc(C(=O)NC3CCOCC3)c2)c2c[nH]cn2)c1C (racemic) [compound 121] | < 10 nM | 10 to 50 nM
6 | Cc1cccc(C(c2c[nH]cn2)c2cccc(-c3cnnn3C)c2F)c1C (stereo not shown) [compound 201] | 10 to 50 nM | < 10 nM
7 | Cc1cccc(C(c2cccc(NC(=O)CCC#N)c2)c2c[nH]cn2)c1C (stereo not shown) [compound 43] | 10 to 50 nM | 10 to 50 nM
8 | CONC(=O)c1cccc(C(c2c[nH]cn2)c2cccc(C)c2C)c1F (stereo not shown) [compound 54] | 10 to 50 nM | 10 to 50 nM
9 | CNc1cccc(CC(c2c[nH]cn2)c2cccc(C)c2C)c1 (stereo not shown) [compound 231] | 10 to 50 nM | 10 to 50 nM
10 | Cc1cccc(C(c2cccc(OCCNS(C)(=O)=O)c2)c2c[nH]cn2)c1C (stereo not shown) [compound 22] | 10 to 50 nM | 10 to 50 nM
11 | Cc1ccccc1C(Cc1ccc(C(N)=O)cc1)c1c[nH]cn1 (stereo not shown) [compound 244] | 50 to 250 nM | 50 to 250 nM
12 | COc1ccc(CC(c2c[nH]cn2)c2cccc(C)c2C)cc1OC (stereo not shown) [compound 224] | < 10 nM | < 10 nM
13 | CNC(=O)Nc1ccc(CC(c2c[nH]cn2)c2cccc(C)c2C)cc1 (stereo not shown) [compound 237] | 10 to 50 nM | < 10 nM
14 | Cc1cccc(C(c2cccc(S(=O)(=O)NC3CCOCC3)c2)c2c[nH]cn2)c1C (stereo not shown) [compound 162] | 10 to 50 nM | < 10 nM
15 | Cc1cccc(C(c2cccc(NC(=O)CCN3CCCC3)c2)c2c[nH]cn2)c1C (stereo not shown) [compound 89] | 50 to 250 nM | 10 to 50 nM
16 | CS(=O)(=O)Nc1cccc(CC(Oc2c(Cl)cccc2Cl)C2=NCCN2)c1 (stereo not shown) [compound 516] | 50 to 250 nM | 50 to 250 nM
17 | COc1cc(CC(c2c[nH]cn2)c2cccc(C)c2C)cc(OC)c1OC (stereo not shown) [compound 226] | < 10 nM | < 10 nM
18 | Cc1cccc(C(Cc2ccc(NC(=S)C3CCOCC3)cc2)c2c[nH]cn2)c1C (stereo not shown) [compound 212] | 10 to 50 nM | < 10 nM
19 | Cc1cccc(C(Cc2ccc(C(C)C(=O)O)cc2)c2c[nH]cn2)c1C (single isomer, unassigned) [174-D] | 10 to 50 nM | 10 to 50 nM
20 | Cc1cccc(C(Cc2ccc(O)c(O)c2)c2c[nH]cn2)c1C (stereo not shown) [compound 223] | 10 to 50 nM | < 10 nM
21 | Cc1cccc(C(COCCNS(=O)(=O)CC2CCOCC2)c2c[nH]cn2)c1C (stereo not shown) [compound 139] | 10 to 50 nM | 10 to 50 nM
22 | Cc1cccc(C(c2cccc(NC(=O)CCC#N)c2)c2c[nH]cn2)c1C (single isomer, unassigned) [43-B] | 10 to 50 nM | 10 to 50 nM
23 | Cc1cccc(C(COCCOCCNC(=O)Nc2ccncn2)c2c[nH]cn2)c1C (stereo not shown) [compound 20] | 10 to 50 nM | 50 to 250 nM
24 | Cc1cccc(C(c2cccc(NC(=O)CN3CCC(O)CC3)c2)c2c[nH]cn2)c1C (stereo not shown) [compound 123] | 10 to 50 nM | < 10 nM
25 | Cc1cccc(C(c2cccc(NC(=S)CC3CCOCC3)c2)c2c[nH]cn2)c1C (stereo not shown) [compound 161] | 10 to 50 nM | < 10 nM
26 | COCCCC(=O)Nc1cccc(C(c2c[nH]cn2)c2cccc(C)c2C)c1 (stereo not shown) [compound 148] | 10 to 50 nM | 10 to 50 nM
